Data published in article PMC11437215 (Nature Communications, 2024).

What was measured:
[1] = system: crinosomes in pancreatic β cells; test: Electron microscopy count of crinophagic granules; assay type: in vivo, NOD mice
[2] = system: insulin epitopes G20 and E21 in crinosome and DCG subcellular fractions; test: Granule-based antigen presentation assay: crinosome; assay type: cell-based, NOD mice; settings: chloroquine vs PBS
[3] = system: 9B9 T cell (G20-specific); test: Presentation of G20 by blood leukocytes after glucose challenge; assay type: cell-based, NOD mice
[4] = system: crinosome subcellular fraction of β cells; test: Crinosome peptidome by mass spectrometry; parameters: species or system NOD mice
[5] = system: autoimmune diabetes in female NOD mice; test: Diabetes development; settings: chloroquine group, all PBS-treated mice became diabetic
[6] = system: 9B9 T cell (G20-specific); test: Presentation of G20 by dispersed islet cells; settings: chloroquine vs PBS; B:9–23 10 µM
[7] = system: type 1 diabetes progression; settings: autoantibody-positive (stage 1) T1D patients; cited from earlier work
[8] = system: tetramer-binding CD4+ T cells; test: Flow cytometry of FOXP3 and CD44 in tetramer-binding CD4+ T cells; assay type: cell-based, NOD and NOD.Ins2−/− mice; settings: NOD mice (Fig. 6b)
[9] = system: tetramer-binding CD4+ T cells; test: Flow cytometry of anergy markers CD73 and FR4 in tetramer-binding CD4+ T cells; assay type: cell-based, NOD and NOD.Ins2−/− mice; settings: SLOs (Supplementary Fig. 9a)
I-A^g7 = settings: Q-to-E conversion; cited from earlier work
CD4+ T cells in SLOs = test: Quantification of tetramer-binding CD4+ T cells in SLOs; assay type: cell-based; settings: SLOs of 6–8-week-old female NOD mice
[10] = system: CD4+ T cell clones BDC2.5 and BDC6.9; settings: cited from earlier work
[11] = system: 9B9 (G20-specific) and IIT-3 (E21-specific) CD4+ T cell hybridomas; assay type: cell-based, mouse; settings: C3.g7 APC pulsed with antigen; IL-2 (Supplementary Fig. 1a, b)
[12] = system: popliteal lymph node T cells (IFNγ, IL-2); test: ELISPOT recall after peptide immunization; settings: immunized with B:9–23 (Fig. 7c)
[13] = system: 9B9, IIT-3, CP1- and CP2-specific CD4+ T cell hybridomas; assay type: cell-based, NOD and NOD.B16A mice; settings: mTECs from NOD or NOD.B16A mice
[14] = system: 9B9, IIT-3, CP1- and CP2-specific CD4+ T cell hybridomas; assay type: cell-based, NOD and NOD.B16A mice; settings: 8 to 10-week-old female NOD mice

## CCN(CC)CCCC(C)Nc1ccnc2cc(Cl)ccc12 (centres unmarked) [Chloroquine, chloroquine]
[1]; male and female NOD mice, short-term chloroquine vs PBS
  change of crinosome-like vesicles in β cells: reduced by half
[1]; young NOD mice (discussion summary)
  diminishing of crinophagic granules and associated peptide production: about 50%
[2]
  effect on presentation of both epitopes in DCGs: did not influence
[2]; male and female NOD mice
  reduction in the presentation level of both G20 and E21 in the crinosome fraction: ~ 50%
[3]; chloroquine vs PBS, B:9–23 10 µM
  presentation of G20 by blood leukocytes during pulse with exogenous B:9–23: without affecting
[3]; preliminary experiments
  duration of the effect in inhibiting G20 presentation: about three days
[4]; chloroquine vs PBS
  overall HIP abundance in crinosomes: significant decrease
  relative abundance of deamidated insulin C-peptides in the crinosome peptidome: significant reduction
[4]; chloroquine vs PBS, 1.2 × 10^6 β cells per condition
  number of peptides in the crinosome peptidome: significant reduction
[4]; mice given chloroquine, ten HIPs in PBS control
  HIPs identified in crinosomes: only one HIP
[4]; peptide-spectra matches, chloroquine vs PBS
  PTMs in the crinosome peptidome (methionine oxidation, deamidation, dehydration, phosphorylation, formylation): reduced
[5]
  mice remaining diabetes free by 35 weeks of age: about 33%
[6]
  G20 presentation by dispersed islet cells pulsed with exogenous B:9–23 peptide: no difference

## CCN(CCO)CCCC(C)Nc1ccnc2cc(Cl)ccc12 (centres unmarked) [hydroxychloroquine]
[7]
  autoantibody acquisition and titers of anti-insulin and anti-GAD antibodies: reduced
  progression to stage 2 T1D: did not delay

## EALYLVCGE [E21]
[8]
  FOXP3 phenotype of tetramer-binding CD4+ single-positive thymocytes: majority
[9]
  expression of CD73 and FR4 in the FOXP3−CD44hi subset of tetramer-binding T cells: high expression of both CD73 and FR4

## GDLQTLALEVARE [CP1d]
I-A^g7
  binding affinity to I-A^g7 relative to native CP1: enhanced the binding affinity

## ILSVHVATAASQDS [ZnT8]
CD4+ T cells in SLOs
  tetramer-binding cells per million CD4+ T cells: less than 5 per million CD4^+ T cells

## LQTLAL-NAARD [6.9HIP]
[9]
  expression of CD73 and FR4 in the FOXP3−CD44hi subset of tetramer-binding T cells: much less expression of CD73 and FR4
[10]
  agonist activity on CD4+ T cell clones BDC2.5 and BDC6.9: strong agonists

## LQTLAL-WSRMD [2.5HIP]
[9]
  expression of CD73 and FR4 in the FOXP3−CD44hi subset of tetramer-binding T cells: much less expression of CD73 and FR4
[10]
  agonist activity on CD4+ T cell clones BDC2.5 and BDC6.9: strong agonists

## TEGEALYLVCGEGGS [Syn-E21]
[11]
  responses of the 9B9 (G20-specific) and IIT-3 (E21-specific) hybridomas: exclusively reacted to their corresponding epitopes
[12]
  T cell responses upon recall in NOD.Ins2−/− mice: significantly enhanced
  T cell responses upon recall in WT NOD mice: minimal

## TEGVEALYLVCGGGS [Syn-G20]
[11]
  responses of the 9B9 (G20-specific) and IIT-3 (E21-specific) hybridomas: exclusively reacted to their corresponding epitopes

## TQSPLLKRQLTSFIEKGQE [DBP]
CD4+ T cells in SLOs
  tetramer-binding cells per million CD4+ T cells: less than 5 per million CD4^+ T cells

## VEALYLVCG [G20]
[8]
  FOXP3 phenotype of tetramer-binding CD4+ single-positive thymocytes: mostly FOXP3^− conventional T cells
[9]
  expression of CD73 and FR4 in the FOXP3−CD44hi subset of tetramer-binding T cells: much less expression of CD73 and FR4

## insulin
[11]
  responses of the 9B9 (G20-specific) and IIT-3 (E21-specific) hybridomas: Only the IIT-3 but not the 9B9 T cell responded
[13]
  presentation of E21 and G20 by mTECs pulsed with antigen: strong presentation of E21, whereas presentation of G20 was minimal
[14]
  presentation of E21 and G20 by dispersed islets pulsed with antigen: only presentation of E21, but not G20, was enhanced
[12]
  T cell responses upon recall in NOD.Ins2−/− mice: significantly enhanced
  T cell responses upon recall in WT NOD mice: minimal
